# Test results taken from patent publication US8642644B2, “Ophthamological drugs” (Duke University, priority 2004, dated 2014).
# What was measured:
# [1] = tested on: intraocular pressure (IOP); assay: Effects on intraocular pressure (IOP) after topical administration to normotensive Dutch-belted rabbits (Example 15); assay type: in vivo, rabbit; conditions: for Maximum reduction of IOP (absolute) / Maximum reduction of IOP (percent): once a day for three days
# From the text: In order to study the utility of the compounds in the treatment of glaucoma, their effects on intraocular pressure (IOP) were investigated following administration to normotensive rabbits.
# 5-O-Ribitol [2,3-dichloro-4-(thiophene-2-carbonyl)]phenoxyacetate: 10% and 15% in a lanolin base.
# 5-O-Xylitol 4-(2-phenylacryloyl)cinnamate: 0.3% and 0.6% mixed equimolar with cysteine in solution.
# 11-Hydroxy-3,6,9-trioxaundecyl 4-(2-phenylacryloyl)cinnamate: 0.3% and 0.6% mixed equimolar with cysteine in solution.
# Eyedrops administered topically to male Dutch-belted rabbits (3-5 kg). IOP determinations made with pneumatonometer (Medtronic Solan, Jacksonville, Fla.) as the average of three measurements per eye at each timepoint. Prior to IOP determination and drug administration, eyes were topically anesthetized with proparacaine hydrochloride, 0.5% (Bausch and Lomb, Inc, Tampa, Fla.).
# 5-O-Ribitol [2,3-dichloro-4-(thiophene-2-carbonyl)]phenoxyacetate: Eyedrops containing the compound were administered once a day for three days. The contralateral eye was administered lanolin base. IOP was assessed in the morning and afternoon for seven days.
# 5-O-Xylitol 4-(2-phenylacryloyl)cinnamate: Eyedrops containing the compound were administered twice daily for 7 days. The contralateral eye was left untreated to serve as a control. IOP was assessed concurrently with drug administration.
# 5-O-{(9α,11α,15R)-15-[2-Benzo[b]thiophen-2-yl]-16,17,18,19,20-pentanor-5,6,13,14-tetrahydro-9,11,15-trihydroxyprostanoyl}xylitol: Eyedrops containing the compound were administered once daily for 7 days. No drug was given on days 8 and 9. The animals were then treated once daily on days 10 through 14. IOP was assessed concurrently with drug administration.
# 1-O-{(9α,11α,15R)-15-[2-Benzo[b]thiophen-2-yl]-16,17,18,19,20-pentanor-5,6,13,14-tetrahydro-9,11,15-trihydroxyprostanoyl}-11-hydroxy-3,6,9-trioxaundecane: Eyedrops containing the compound were administered once daily for 5 days. The contralateral eye was left untreated to serve as a control. IOP was assessed concurrently with drug administration.
# 11-Hydroxy-3,6,9-trioxaundecyl 4-(2-phenylacryloyl)cinnamate: Eyedrops containing the compound were administered twice daily for 7 days. The contralateral eye was left untreated to serve as a control. IOP was assessed concurrently with drug administration.
# [2] = tested on: intraocular pressure; assay: Intraocular pressure lowering by ticrynafen-ribitol ester ointment in the Dutch Belted rabbit model (Example 3); assay type: in vivo; conditions: for Maximal pressure reduction: topical, doses at 0, 24 and 48 hours
# Protocol: Ticrynafen-ribitol ester was formulated as an ointment in 5, 10, and 15% concentrations. The Dutch Belted rabbit model was used to test the formulation for both pressure lowering and side effects. Baseline intraocular pressures were obtained by placing one drop of proparacaine in each eye followed by pressure measurements utilizing a Pneumotonometer®. […] The second eye was used as a control with application of lanolin ointment without drug. Repeat doses were given at 24 hour intervals for a total of three doses (0, 24, and 48 hours). Intraocular pressures were recorded every 12 hours for one week. A total of twelve rabbits received the 5% ointment, eight rabbits the 10% ointment, and eight rabbits the 15% ointment. FIG. 4 presents the 10% data with statistically significant timepoints indicated by double asterisks.
# [3] = Solubility in petrolatum/lanolin mixtures; assay type: physicochemical
# [4] = Activity against glaucoma (stated in words)
# [5] = tested on: intraocular pressure; assay: Intraocular pressure lowering by 0.004% AR101 solution in the Dutch Belted rabbit model (Example 6); assay type: in vivo; conditions: 0.004% solution; loading dose 3 drops day 0 and 10, one drop daily days 1-7 and 10-14; versus contralateral control eye
# From the text: The xylitol prostaglandin ester of Formula V (also called AR101) was formulated as a 0.004% solution for topical administration. The Dutch Belted Rabbit model was used to test the formulation for both pressure lowering and side effects. Baseline intraocular pressures were obtained by placing one drop of proparacaine in each eye followed by pressure measurements with a Pneumotonometer®. One eye of each rabbit received a loading dose of 3 drops 0.004% AR101 on day 0 and day 10. One drop of AR101 was given daily on days 1-7 and 10-14. No drug was given on days 8 and 9. The contralateral control eye received balanced salt solution drops without AR101. Intraocular pressure measurements were recorded every 12 hours for two weeks.
# [6] = tested on: pig liver esterase
# Protocol: Since the sugar alcohol moiety imparts water-solubility to the compounds, an assay can be readily set up to determine the optimal sugar alcohol for each drug moiety based on the release rate thus: A commercially-available preparation of esterase, such as porcine liver esterase (Sigma Corp., St. Louis), is prepared at a standard concentration. The drug-sugar alcohol combination, dissolved in methanol or a methanol-water or methanol-acetonitrile combination, is added dropwise to the esterase and the rate at which the compound is released from the alcohol is determined. The analytical technique used to determine the amount of free acid will vary with the acid used, but a typical procedure would be by TLC, or reverse-phase TLC, or HPLC or by Mass Spectroscopy. One skilled in the art can readily determine the optimal analytical method for each sugar-acid pair evaluated. This assay can easily be adapted to be run in a 96-well plate format, or other high-throughput method of determining activity.
# [7] = 0.004% in solution, once daily for 5 days
# [8] = 0.02% in solution, once daily for 5 days
# [9] = 0.3% mixed equimolar with cysteine in solution, twice daily for 7 days
# [10] = 0.6% mixed equimolar with cysteine in solution, twice daily for 7 days
# [11] = 10% in lanolin base, at 36 hours
# [12] = 15% in lanolin base, at 60 hours
# [13] = 0.004% in solution, once daily days 1-7 and 10-14
compound,measurement,setting,value
"O=C(CCCCCC[C@@H]1[C@@H](CCC(O)c2cc3ccccc3s2)[C@H](O)C[C@@H]1O)OCCOCCOCCOCCO (stereo partly drawn) [1-O-{(9α,11α,15R)-15-[2-Benzo[b]thiophen-2-yl]-16,17,18,19,20-pentanor-5,6,13,14-tetrahydro-9,11,15-trihydroxyprostanoyl}-11-hydroxy-3,6,9-trioxaundecane]",Maximum reduction from untreated control,[1]; [7],−2.8 mmHg
same,Maximum reduction from untreated control (percent),[1]; [7],12%
same,Maximum reduction from untreated control,[1]; [8],−3.0 mmHg
same,Maximum reduction from untreated control (percent),[1]; [8],17%
"C=C(C(=O)c1ccc(C=CC(=O)OCCOCCOCCOCCO)cc1)c1ccccc1 [11-Hydroxy-3,6,9-trioxaundecyl 4-(2-phenylacryloyl)cinnamate]",Maximum reduction from untreated control,[1]; [9],−1.7 mmHg
same,Maximum reduction from untreated control (percent),[1]; [9],8%
same,Maximum reduction from untreated control,[1]; [10],−1.9 mmHg
same,Maximum reduction from untreated control (percent),[1]; [10],8%
"O=C(COc1ccc(C(=O)c2cccs2)c(Cl)c1Cl)OC[C@H](O)[C@H](O)[C@H](O)CO [Formula III, 5-O-Ribitol [2,3-dichloro-4-(thiophene-2-carbonyl)]phenoxyacetate]",Maximal pressure reduction,"[2]; 5% ointment, maximum at 54 hours",11%
same,Maximal pressure reduction,"[2]; 10% ointment, maximum at 36 hours",18%
same,Maximal pressure reduction,"[2]; 15% ointment, maximum at 60 hours",13%
same,"Reduction of intraocular pressure (IOP), in words","[2]; Dutch-Belted white rabbits, petrolatum/lanolin ointment",reduces intraocular pressure (IOP) in a dose-dependent fashion
same,Maximum reduction of IOP (absolute),[1]; [11],−4.3
same,Maximum reduction of IOP (percent),[1]; [11],18%
same,Maximum reduction of IOP (absolute),[1]; [12],−3.0
same,Maximum reduction of IOP (percent),[1]; [12],13%
same,Solubility in petrolatum/lanolin mixtures,[3],completely soluble
O=C(O)CCCCCC[C@@H]1[C@@H](CC[C@@H](O)c2cc3ccccc3s2)[C@H](O)C[C@@H]1O [Formula II],"Activity against glaucoma, in words",[4],strong activity against glaucoma
"O=C(O)COc1ccc(C(=O)c2cccs2)c(Cl)c1Cl [Formula IV, Ticrynafen]","Activity against glaucoma, in words",[4],little or no activity
"O=C(CCCCCC[C@@H]1[C@@H](CC[C@@H](O)c2cc3ccccc3s2)[C@H](O)C[C@@H]1O)OC[C@@H](O)[C@H](O)[C@@H](O)CO [Formula V, 5-O-{(9α,11α,15R)-15-[2-Benzo[b]thiophen-2-yl]-16,17,18,19,20-pentanor-5,6,13,14-tetrahydro-9,11,15-trihydroxyprostanoyl}xylitol]",Statistically significant pressure reductions between eyes (days),[5],"Statistically significant pressure reductions between eyes were observed on days 3, 7, and 11"
same,Significant reductions of IOP from baseline (days),[1]; [13],"Significant reductions from baseline on days 2, 3, 5, 11, and 12"
same,Significant reductions of IOP from baseline and untreated control (days),[1]; [13],"Significant reductions from baseline and untreated control on days 3, 5, and 11"
same,Hydrolysis by pig liver esterase,[6],readily hydrolyzed
"C=C(C(=O)c1ccc(/C=C/C(=O)OC[C@@H](O)[C@H](O)[C@@H](O)CO)cc1)c1ccccc1 [Formula VIII, 5-O-Xylitol 4-(2-phenylacryloyl)cinnamate]",Maximum reduction from untreated control,[1]; [9],−2.4 mmHg
same,Maximum reduction from untreated control (percent),[1]; [9],11%
same,Maximum reduction from untreated control,[1]; [10],−2.4 mmHg
same,Maximum reduction from untreated control (percent),[1]; [10],13%
